Converted amounts (≈) assume the structure as drawn.

The subject of the assay is A. baumannii strain ATCC19606. The assay is described as follows: Minimum inhibitory concentration (MIC) determination, microbroth dilution (CLSI). As to conditions: Acinetobacter baumannii; A. baumannii ATCC19606; CAMHB; read after 20 hours; >=80% growth inhibition; read-out: ATCC19606 MIC. It is filed as cell-based. In outline: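 CLSI broth microdilution in cation-adjusted Mueller Hinton broth with twofold compound dilutions and ~5×10^5 CFU/ml inoculum, incubated at 35±2 °C. MIC read after 20 h as lowest concentration inhibiting ≥80% of growth, by eye and OD 600 nm.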
For orientation: In broth dilution the organism is exposed to a series of concentrations in liquid medium.
For the compound `CCc1ccc2c(c1)CNC(=O)[C@H](Cc1c[nH]c3ccccc13)N(C)C(=O)[C@H](CCCCN)NC(=O)[C@H](CCCN)NCc1ccccc1S2` [Example 66, (12S,15S,18S)-15-(4-Amino-butyl)-18-(3-amino-propyl)-6-ethyl-12-(1H-indol-3-ylmethyl)-13-methyl-2-thia-10,13,16,19-tetraaza-tricyclo[19.4.0.0*3,8*]pentacosa-1(25),3,5,7,21,23-hexaene-11,14,17-trione], the minimal inhibitory concentration (MIC) was found to be 0.5 µg/mL (≈ 0.716 µM). Under `CN1C(=O)[C@H](CCCCN)NC(=O)[C@H](CCC(N)=O)NCc2cccnc2Sc2c(Cl)ccc(-c3ccnc(F)c3)c2CNC(=O)[C@@H]1Cc1c[nH]c2ccccc12` [Example 231, 3-[(11S,14S,17S)-14-(4-Amino-butyl)-25-chloro-22-(2-fluoro-pyridin-4-yl)-17-(1H-indol-3-ylmethyl)-16-methyl-12,15,18-trioxo-2-thia-4,10,13,16,19-pentaaza-tricyclo[19.4.0.0*3,8*]pentacosa-1(21),3,5,7,22,24-hexaen-11-yl]-propionamide] stands 1 µg/mL (≈ 1.23 µM). For `CN1C(=O)[C@H](CCCCN)NC(=O)[C@H](CCCN)NCc2ccccc2Sc2ccc(C(F)(F)F)cc2CNC(=O)[C@@H]1Cc1c[nH]c2ccccc12` [Example 14, (12S,15S,18S)-15-(4-Amino-butyl)-18-(3-amino-propyl)-12-(1H-indol-3-ylmethyl)-13-methyl-6-trifluoromethyl-2-thia-10,13,16,19-tetraaza-tricyclo[19.4.0.0*3,8*]pentacosa-1(21),3,5,7,22,24-hexaene-11,14,17-trione] the value was 1 µg/mL (≈ 1.36 µM); for `CN1C(=O)[C@H](CCCCN)NC(=O)[C@H](CCCN)NCc2ccccc2Sc2cc(Cl)ccc2CNC(=O)[C@@H]1Cc1c[nH]c2ccccc12` [Example 6, (12S,15S,18S)-15-(4-Amino-butyl)-18-(3-amino-propyl)-5-chloro-12-(1H-indol-3-ylmethyl)-13-methyl-2-thia-10,13,16,19-tetraaza-tricyclo[19.4.0.0*3,8*]pentacosa-1(21),3,5,7,22,24-hexaene-11,14,17-trione], 2 µg/mL (≈ 2.84 µM); for `CN1C(=O)[C@H](CCCCN)NC(=O)[C@H](CCCN)NCc2ccccc2Sc2nc(N3CCOCC3)ccc2CNC(=O)[C@@H]1Cc1c[nH]c2ccccc12` [Example 192], 64 µg/mL (≈ 84.7 µM). For `CN1C(=O)[C@H](CCCCN)NC(=O)[C@H](CCCN)NCc2cccnc2Sc2c(Cl)ccc(-c3ccnc(F)c3)c2CNC(=O)[C@@H]1Cc1c[nH]c2ccccc12` [Example 222, (11S,14S,17S)-14-(4-Amino-butyl)-11-(3-amino-propyl)-25-chloro-22-(2-fluoro-pyridin-4-yl)-17-(1H-indol-3-ylmethyl)-16-methyl-2-thia-4,10,13,16,19-pentaaza-tricyclo[19.4.0.0*3,8*]pentacosa-1(25),3(8),4,6,21,23hexaene-12,15,18-trione], the MIC was 0.12 µg/mL (≈ 0.15 µM). With `CN1C(=O)[C@H](CCCCN)NC(=O)[C@H](CNC(N)=O)NCc2cccnc2Sc2c(Cl)cc(Cl)cc2CNC(=O)[C@@H]1Cc1c[nH]c2ccccc12` [Example 180, [(11S,14S,17S)-14-(4-Amino-butyl)-23,25-dichloro-17-(1H-indol-3-ylmethyl)-16-methyl-12,15,18-trioxo-2-thia-4,10,13,16,19-pentaaza-tricyclo[19.4.0.0*3,8*]pentacosa-1(25),3(8),4,6,21,23-hexaen-11-ylmethyl]-urea], the MIC came to 1 µg/mL (≈ 1.32 µM). For `CN1C(=O)[C@H](CCCCN)NC(=O)[C@H](CCCN)NCc2nccnc2Sc2c(Cl)cc(C(F)(F)F)cc2CNC(=O)[C@@H]1Cc1c[nH]c2ccccc12` [Example 97, (11S,14S,17S)-14-(4-Amino-butyl)-11-(3-amino-propyl)-25-chloro-17-(1H-indol-3-ylmethyl)-16-methyl-23-trifluoromethyl-2-thia-4,7,10,13,16,19-hexaaza-tricyclo[19.4.0.0*3,8*]pentacosa-1(21),3,5,7,22,24-hexaene-12,15,18-trione] the value was 0.12 µg/mL (≈ 0.155 µM). For `CN1C(=O)[C@H](CCCN)NC(=O)[C@H](CCC(N)=O)NCc2cccnc2Sc2c(Cl)cc(Cl)cc2CNC(=O)[C@@H]1Cc1c[nH]c2ccccc12` [Example 160, 3-[(11S,14S,17S)-14-(3-Amino-propyl)-23,25-dichloro-17-(1H-indol-3-ylmethyl)-16-methyl-12,15,18-trioxo-2-thia-4,10,13,16,19-pentaaza-tricyclo[19.4.0.0*3,8*]pentacosa-1(25),3(8),4,6,21,23-hexaen-11-yl]-propionamide] the value was 4 µg/mL (≈ 5.41 µM).

With `CN1C(=O)[C@H](CCCCN)NC(=O)[C@H](CCCN)NCc2ccccc2Sc2ccc(C(C)(C)C)cc2CNC(=O)[C@@H]1Cc1c[nH]c2ccccc12` [Example 70, (12S,15S,18S)-15-(4-Amino-butyl)-18-(3-amino-propyl)-6-tert-butyl-12-(1H-indol-3-ylmethyl)-13-methyl-2-thia-10,13,16,19-tetraaza-tricyclo[19.4.0.0*3,8*]pentacosa-1(25),3,5,7,21,23-hexaene-11,14,17-trione], the MIC came to 2 µg/mL (≈ 2.75 µM). Under `CN1C(=O)[C@H](CCCCN)NC(=O)[C@H](CCCN)NCc2cccnc2Sc2c(Cl)cc(-c3ccnc(F)c3)cc2CNC(=O)[C@@H]1Cc1c[nH]c2ccccc12` [Example 177, (11S,14S,17S)-14-(4-Amino-butyl)-11-(3-amino-propyl)-25-chloro-23-(2-fluoro-pyridin-4-yl)-17-(1H-indol-3-ylmethyl)-16-methyl-2-thia-4,10,13,16,19-pentaaza-tricyclo[19.4.0.0*3,8*]pentacosa-1(25),3(8),4,6,21,23-hexaene-12,15,18-trione] stands 1 µg/mL (≈ 1.25 µM); under `CN1C(=O)[C@H](CCCCN)NC(=O)[C@H](Cc2cccc3ccccc23)NCc2cccnc2Sc2c(Cl)cc(Cl)cc2CNC(=O)[C@@H]1Cc1c[nH]c2ccccc12` [Example 114, (11S,14S,17S)-14-(4-Amino-butyl)-23,25-dichloro-17-(1H-indol-3-ylmethyl)-16-methyl-11-naphthalen-1-ylmethyl-2-2-thia-4,10,13,16,19-pentaaza-tricyclo[19.4.0.0*3,8*]pentacosa-1(25),3,5,7,21,23-hexaene-12,15,18-trione], 32 µg/mL (≈ 38.9 µM); under `CN1C(=O)[C@H](CCCCN)NC(=O)[C@H](CCCN)NCc2ccccc2Sc2ccc(Cl)cc2CNC(=O)[C@@H]1Cc1cn(C)c2ccccc12` [Example 17, (12S,15S,18S)-15-(4-Amino-butyl)-18-(3-amino-propyl)-6-chloro-13-methyl-12-(1-methyl-1H-indol-3-ylmethyl)-2-thia-10,13,16,19-tetraaza-tricyclo[19.4.0.0*3,8*]pentacosa-1(21),3,5,7,22,24-hexaene-11,14,17-trione], 32 µg/mL (≈ 44.5 µM).

For `CN1C(=O)[C@H](CCCCN)NC(=O)[C@H](CCC(N)=O)NCc2cccnc2Sc2c(Cl)ccc(Cl)c2CNC(=O)[C@@H]1Cc1c[nH]c2ccccc12` [Example 121, 3-[(11S,14S,17S)-14-(4-Amino-butyl)-22,25-dichloro-17-(1H-indol-3-ylmethyl)-16-methyl-12,15,18-trioxo-2-thia-4,10,13,16,19-pentaaza-tricyclo[19.4.0.0*3,8*]pentacosa-1(25),3,5,7,21,23-hexaen-11-yl]-propionamide], the MIC was found to be 2 µg/mL (≈ 2.65 µM). Under `Cc1[nH]c2ccccc2c1C[C@H]1C(=O)NCc2c(-c3ccncc3)ccc(Cl)c2Sc2ncccc2CN[C@@H](CCCN)C(=O)N[C@@H](CCCCN)C(=O)N1C` [Example 202, (11S,14S,17S)-14-(4-Amino-butyl)-11-(3-amino-propyl)-25-chloro-16-methyl-17-(2-methyl-1H-indol-3-ylmethyl)-22-pyridin-4-yl-2-thia-4,10,13,16,19-pentaaza-tricyclo[19.4.0.0*3,8*]pentacosa-1(25),3(8),4,6,21,23-hexaene-12,15,18-trione] stands 0.12 µg/mL (≈ 0.151 µM). For `CN1C(=O)[C@H](CCCCN)NC(=O)[C@H](CCCN)NCc2cccnc2Sc2c(Cl)cc(C#CCOCc3ccccc3)cc2CNC(=O)[C@@H]1Cc1c[nH]c2ccccc12` [Example 188, (11S,14S,17S)-14-(4-Amino-butyl)-11-(3-amino-propyl)-23-(3-benzyloxy-prop-1-ynyl)-25-chloro-17-(1H-indol-3-ylmethyl)-16-methyl-2-thia-4,10,13,16,19-pentaaza-tricyclo[19.4.0.0*3,8*]pentacosa-1(25),3(8),4,6,21,23-hexaene-12,15,18-trione], the MIC amounted to 2 µg/mL (≈ 2.35 µM).

For `CN1C(=O)[C@H](CCCCN)NC(=O)[C@H](CCCN)NCc2cccnc2Sc2c(Cl)cc(Br)cc2CNC(=O)[C@@H]1Cc1c[nH]c2ccccc12` [Example 89, (11S,14S,17S)-14-(4-Amino-butyl)-11-(3-amino-propyl)-23-bromo-25-chloro-17-(1H-indol-3-ylmethyl)-16-methyl-2-thia-4,10,13,16,19-pentaaza-tricyclo[19.4.0.0*3,8*]pentacosa-1(25),3,5,7,21,23-hexaene-12,15,18-trione], the MIC came out at 0.12 µg/mL (≈ 0.153 µM). `Cc1cc(Cl)c2c(c1)CNC(=O)[C@H](Cc1c[nH]c3ccccc13)N(C)C(=O)[C@H](CCCCN)NC(=O)[C@H](CCCN)NCc1ccccc1S2` [Example 41, (12S,15S,18S)-15-(4-Amino-butyl)-18-(3-amino-propyl)-4-chloro-12-(1H-indol-3-ylmethyl)-6,13-dimethyl-2-thia-10,13,16,19-tetraaza-tricyclo[19.4.0.0*3,8*]pentacosa-1(25),3,5,7,21,23-hexaene-11,14,17-trione]: the MIC is 0.5 µg/mL (≈ 0.696 µM). With `CN1C(=O)[C@H](CCCCN)NC(=O)[C@H](CCCN)NCc2cccnc2Sc2c(Cl)cc(B(O)O)cc2CNC(=O)[C@@H]1Cc1c[nH]c2ccccc12` [Example 116, {(7S,10S,13S)-10-(4-aminobutyl)-7-(3-aminopropyl)-20-chloro-13-[(1H-indol-3-yl)methyl]-12-methyl-8,11,14-trioxo-5,6,7,8,9,10,11,12,13,14,15,16-dodecahydropyrido[2,3-b][1,5,8,11,14]benzothiatetraazacycloheptadecin-18-yl}boronic acid], the MIC is 8 µg/mL (≈ 10.7 µM).

By MIC is commonly meant the lowest concentration that inhibits growth of the organism.

For the origin of these results see patent publication US10030047B2 (Hoffmann-La Roche Inc., priority 2015, dated 2018).
